The values below come from the OPERA property sets (Mansouri et al. 2018).

Each structure is given as a SMILES string. Converted amounts (≈) assume the structure as drawn.

Conditions in the first data set: not given
A word on the logP: it is a log measure of how a compound divides between an organic and an aqueous phase. The low end stands for a more hydrophilic compound, the high end for a more lipophilic compound. With `COc1ccc(C(CN(C)C)C2(O)CCCCC2)cc1.Cl` (stereo unspecified), the logP was 0.43.
The solubility is the concentration that dissolves in the medium under given conditions. A high value points to a readily soluble substance. As to `CCCCN(CCN(CCCC)C(=O)N1CCOCC1)C(=O)N1CCOCC1`, the solubility came out at 1250 mM (≈ 500000 µg/mL).
As for `O=S(=O)([O-])CS(=O)(=O)[O-].[Ca+2]`, the solubility was determined as 1340 mM.
Regarding `CCN(CC)C(=O)CSc1ccc(Cl)nn1`, the solubility worked out at 19.2 mM (≈ 5000 µg/mL).
Still for that read-out and setting: then `O=C(c1ccccc1O)N1CCOCC1`, with 19.8 mM (≈ 4100 µg/mL); and `CC(=O)C1CCOC1=O` (stereo unspecified), with 1560 mM (≈ 200000 µg/mL).
Same read-out and setting: next, `O=P([O-])([O-])O[C@@H]1[C@@H](O)[C@H](O)[C@@H](O)[C@H](O)[C@@H]1O`: 1280 mM; `CCC(C)C1(CC)C(=O)N=C([O-])NC1=O.[Na+]` (stereo unspecified): 1420 mM.
Consider `CC(=O)OC[C@H]1O[C@@](COC(C)=O)(O[C@H]2O[C@H](COC(C)=O)[C@@H](OC(C)=O)[C@H](OC(C)=O)[C@H]2OC(C)=O)[C@@H](OC(C)=O)[C@@H]1OC(C)=O`, for which the solubility turned out to be 1.34 mM (≈ 910 µg/mL).
Regarding `O=C(C(Cl)Cl)N(CCO)Cc1ccc(Oc2ccc([N+](=O)[O-])cc2)cc1`, the solubility was determined as 0.00751 mM (≈ 3 µg/mL).
Still for that read-out and setting: then `Cc1cc(O)c(Cl)c(C)c1Cl`, with 1.05 mM (≈ 200 µg/mL).
On the same count and under the same terms, next, `Nc1nc(N)c(O)c(O)n1`: 20.1 mM (≈ 2850 µg/mL); `CN(C)CCc1ccc(O)cc1`: 42.4 mM (≈ 7000 µg/mL); `C=C[C@H]1C[N@@]2CC[C@H]1C[C@H]2C12Nc3ccccc3C1(O)CCO2` (stereo partly specified): 2.14 mM (≈ 667 µg/mL).
The same measure, in the same setting: then `COC(=O)CC(C)=O`, with 4310 mM (≈ 500000 µg/mL).
On to `CCC(C)(CC)OC(N)=O`, for which the solubility was determined as 27.5 mM (≈ 4000 µg/mL).
For `CCC(Br)(CC)C(=O)NC(N)=O`, the solubility amounted to 1.4 mM (≈ 333 µg/mL).
Still for that read-out and setting: next, `Nc1ccc(S(=O)(=O)O)c2cc(S(=O)(=O)O)ccc12`: 551 mM (≈ 167000 µg/mL); `CCOc1ccc2nc3cc(N)ccc3c(N)c2c1`: 263 mM (≈ 66600 µg/mL).
Same read-out and setting: then `O=C[C@H](O)C(O)[C@H](O)CO` (stereo in doubt), with 3700 mM (≈ 555000 µg/mL); and `CN1C2CCCC1CC(=O)C2`, with 2610 mM (≈ 400000 µg/mL).
Still for that read-out and setting: next, `CC[C@@]12CCCN3CC[C@]4(c5cccc(OC)c5N(C(C)=O)[C@@H]4CC1)[C@H]32`: 47.1 mM (≈ 16700 µg/mL); `COc1c2c(cc3oc(=O)ccc13)OC(C)(C)C=C2`: 0.155 mM (≈ 40 µg/mL).
`CC(C)(C)OOC(C)(C)C` gave a solubility of 0.684 mM (≈ 100 µg/mL).
With `Cn1ccc(=O)c2ccccc21`, the solubility stood at 104 mM (≈ 16600 µg/mL).
In the case of `C=C1CCO[C@]2([C@H](O)[C@@](C)(O)CO)NC(=O)[C@@]1(O)NC2=O`, the solubility was determined as 635 mM (≈ 192000 µg/mL).
Same read-out and setting: then `CC1(C)[C@H]2CC[C@]1(C)C(=O)[C@H]2O`, with 119 mM (≈ 20000 µg/mL); and `Cc1cc(NS(=O)(=O)c2ccc(N)cc2)sn1`, with 83.9 mM (≈ 22600 µg/mL).
`CC(O)C(Cl)(Cl)Cl` (stereo unspecified) showed a solubility of 175 mM (≈ 28600 µg/mL).
The same measure, in the same setting: next, `NC(=O)OCC(Cl)(Cl)Cl`: 52 mM (≈ 10000 µg/mL); `CNC(=S)NCO`: 832 mM (≈ 100000 µg/mL).
The same measure, in the same setting: then `CCC1(N2CCCCC2)C(=O)NC(=O)NC1=O`, with 6.98 mM (≈ 1670 µg/mL); and `CN(CCO)c1nc2c(c(=O)n(C)c(=O)n2C)n1C`, with 224 mM (≈ 60000 µg/mL); and `CCN(CC)C(=O)CC(C)C`, with 254 mM (≈ 40000 µg/mL).
On the same count and under the same terms, then `OC[C@@H](O)[C@H](O)[C@@H](O)CO`, with 4220 mM (≈ 642000 µg/mL); and `O=C1NCCN1/N=C/c1ccc([N+](=O)[O-])o1`, with 0.439 mM (≈ 98.5 µg/mL); and `CN1C(=O)OC(C)(C)C1=O`, with 349 mM (≈ 50000 µg/mL).
The molecule `CC(=O)N/N=C/c1ccc([N+](=O)[O-])o1` came in with a solubility of 2.54 mM (≈ 500 µg/mL).
With `OC(CI)CI`, the solubility is 40.1 mM (≈ 12500 µg/mL).
In the case of `O=Cc1ccccc1O[C@@H]1O[C@H](CO)[C@@H](O)[C@H](O)[C@H]1O`, the solubility was determined as 63.3 mM (≈ 18000 µg/mL).
On the same count and under the same terms, then `Nc1ccc(S(=O)(=O)O)c2ccc(S(=O)(=O)O)cc12`, with 22.8 mM (≈ 6900 µg/mL).
Regarding `CC(C[N+](C)(C)C)OC(N)=O.[Cl-]` (stereo unspecified), the solubility amounted to 3180 mM.
On the same count and under the same terms, next, `Nc1nc(N)c(O[C@@H]2O[C@H](CO)[C@@H](O)[C@H](O)[C@H]2O)c(=O)[nH]1`: 32.9 mM (≈ 10000 µg/mL); `C#CCOC(=O)/C=C(C)/C=C/CC(C)CCCC(C)C` (stereo unspecified): 0.0189 mM (≈ 5.22 µg/mL); `O=C([O-])c1ccccc1C(=O)O.[K+]`: 408 mM.
With `CC(=O)Oc1ccc(Br)cc1C(=O)O`, the solubility amounted to 2.57 mM (≈ 667 µg/mL).
`O=C(C1CCCCC1)N1CC(=O)N2CCc3ccccc3C2C1` (stereo unspecified) showed a solubility of 1.28 mM (≈ 400 µg/mL). Against the preceding molecule, the solubility is about 2-fold lower.
Molecule `C=CCC(C(=O)NC(N)=O)C(C)C` (stereo unspecified) gave a solubility of 1.79 mM (≈ 330 µg/mL).
The same measure, in the same setting: next, `O=C(OC[C@H]1O[C@@H](Oc2ccccc2CO)[C@H](O)[C@@H](O)[C@@H]1O)c1ccccc1`: 1.28 mM (≈ 500 µg/mL).

Staying with this data set, now noted: 20 °C.
Regarding `C[C@H](O)[C@@H](O)c1cnc2[nH]c(N)nc(=O)c2n1`, the solubility worked out at 2.95 mM (≈ 700 µg/mL).
The molecule `CC(C)(C)C(O)C(Oc1ccc(Cl)cc1)n1cncn1` (stereo unspecified) returned a solubility of 0.406 mM (≈ 120 µg/mL).
For the molecule `CC(=O)N(O)CCCCCNC(=O)CCC(=O)N(O)CCCCCNC(=O)CCC(=O)N(O)CCCCCN`, the solubility came out at 21.4 mM (≈ 12000 µg/mL).
`Cc1ccc(C(C)C)c(O)c1C(=O)O` had a solubility of 0.515 mM (≈ 100 µg/mL).
Still for that read-out and setting: next, `CC(N)c1ccccc1` (stereo unspecified): 347 mM (≈ 42000 µg/mL); `CC(=O)N(C)N(C(=O)C(=O)N(C)C)c1ccccc1`: 292 mM (≈ 76900 µg/mL).
For the molecule `N=C(NCCCCCCNC(=N)NC(=N)Nc1ccc(Cl)cc1)NC(=N)Nc1ccc(Cl)cc1`, the solubility came out at 1.58 mM (≈ 800 µg/mL).
